What was measured:
Type in all cases: biochemical
[1] = target: T1, FKRP (fukutin-related protein) (Mus musculus, UniProt Q8CG64); assay: transfer of radiolabel to alpha-dystroglycan (scintillation counting; SDS-PAGE phosphorimaging); conditions: labelled compound; acceptor rabbit alpha-dystroglycan fragments; 2 mM MnCl2, pH 6.5, 30 °C, 16 h
T1 construct: full ORF from mouse thymus cDNA, C-terminal SFB tag (S-tag, two FLAG, SBP), HEK293 lysate, streptavidin beads
T1 sequence (Q8CG64 1-494): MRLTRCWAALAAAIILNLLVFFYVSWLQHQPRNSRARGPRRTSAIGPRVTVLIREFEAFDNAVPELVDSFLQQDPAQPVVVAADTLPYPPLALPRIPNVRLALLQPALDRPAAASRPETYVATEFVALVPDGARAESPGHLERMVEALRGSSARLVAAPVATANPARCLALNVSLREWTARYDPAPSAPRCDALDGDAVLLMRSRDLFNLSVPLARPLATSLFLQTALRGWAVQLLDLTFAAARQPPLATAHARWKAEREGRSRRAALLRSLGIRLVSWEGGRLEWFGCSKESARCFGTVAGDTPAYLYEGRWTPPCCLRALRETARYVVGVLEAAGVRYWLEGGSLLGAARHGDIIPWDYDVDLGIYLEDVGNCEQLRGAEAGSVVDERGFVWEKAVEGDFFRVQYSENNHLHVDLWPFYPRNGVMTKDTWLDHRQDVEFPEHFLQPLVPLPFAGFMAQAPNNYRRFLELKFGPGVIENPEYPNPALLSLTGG

[2] = target: T2, FKTN (fukutin) (Mus musculus, UniProt Q8R507); assay: as above; conditions: labelled compound; acceptor rabbit alpha-dystroglycan fragments; 2 mM MnCl2, pH 6.5, 30 °C, 16 h
T2 construct: full ORF from mouse brown adipose tissue cDNA, C-terminal SFB tag (S-tag, two FLAG, SBP), HEK293 lysate, streptavidin beads
T2 sequence (Q8R507 1-461): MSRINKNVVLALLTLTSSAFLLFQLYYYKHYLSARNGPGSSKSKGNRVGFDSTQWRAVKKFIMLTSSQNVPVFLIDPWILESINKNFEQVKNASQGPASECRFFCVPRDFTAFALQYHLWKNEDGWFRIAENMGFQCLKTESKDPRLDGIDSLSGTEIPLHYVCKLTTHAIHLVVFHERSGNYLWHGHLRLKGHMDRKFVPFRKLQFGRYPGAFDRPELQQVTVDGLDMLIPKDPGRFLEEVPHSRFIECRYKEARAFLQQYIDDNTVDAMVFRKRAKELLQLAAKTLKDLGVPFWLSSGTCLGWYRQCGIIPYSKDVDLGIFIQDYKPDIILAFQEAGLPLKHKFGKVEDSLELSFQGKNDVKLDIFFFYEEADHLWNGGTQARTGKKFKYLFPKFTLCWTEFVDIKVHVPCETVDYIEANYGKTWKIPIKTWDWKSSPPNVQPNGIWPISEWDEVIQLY

[3] = target: T3, ISPD (mouse Ispd) (Mus musculus, UniProt Q5RJG7); assay: HPLC (strong anion exchange) of CDP-ribitol formed; conditions: 1 mM CTP
T3 construct: gene Crppa
T3 sequence (Q5RJG7 1-447): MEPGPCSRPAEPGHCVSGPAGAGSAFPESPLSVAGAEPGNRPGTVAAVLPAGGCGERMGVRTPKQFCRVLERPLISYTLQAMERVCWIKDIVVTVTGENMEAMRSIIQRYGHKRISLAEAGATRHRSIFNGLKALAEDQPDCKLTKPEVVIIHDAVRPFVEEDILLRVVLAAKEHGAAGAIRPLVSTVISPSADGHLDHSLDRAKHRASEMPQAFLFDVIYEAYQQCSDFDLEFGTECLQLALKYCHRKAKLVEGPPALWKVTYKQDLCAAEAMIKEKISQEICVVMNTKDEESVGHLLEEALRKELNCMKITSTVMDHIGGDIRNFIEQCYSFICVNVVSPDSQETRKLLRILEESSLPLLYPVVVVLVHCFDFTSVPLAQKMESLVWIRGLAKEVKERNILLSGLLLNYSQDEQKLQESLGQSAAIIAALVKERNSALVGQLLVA

`Nc1ccn([C@@H]2O[C@H](COP(=O)(O)OP(=O)(O)OC[C@@H](O)[C@@H](O)[C@@H](O)CO)[C@@H](O)[C@H]2O)c(=O)n1` [CDP-ribitol] was tested. Which “transfer of radiolabel to alpha-dystroglycan (scintillation counting); SDS-PAGE p” value [1] did it give?
Its value is “both FKTN and FKRP were able to transfer ribitol phosphate from CDP-ribitol onto α-dystroglycan”.

And the “transfer of radiolabel to alpha-dystroglycan (scintillation counting); SDS-PAGE p” value [2]?
The value was “both FKTN and FKRP were able to transfer ribitol phosphate from CDP-ribitol onto α-dystroglycan”.

Which “HPLC (strong anion exchange) of CDP-ribitol formed” value ([3]; D-ribitol-5-P as co-substrate, 2 mM MgCl2, pH 7.8, 37 °C) does the source give for `Nc1ccn([C@@H]2O[C@H](COP(=O)(O)OP(=O)(O)OP(=O)(O)O)[C@@H](O)[C@H]2O)c(=O)n1` [CTP] here?
The value was “Activity of ISPD on CTP and D-ribitol-5-P”.

With `O=P(O)(O)OC[C@@H](O)[C@@H](O)[C@@H](O)CO` [D-ribitol-5-P] as the compound, how does the “HPLC (strong anion exchange) of CDP-ribitol formed” value ([3]; 2 mM MgCl2, 20 mM KCl, 2 mM DTT, pH 7.8, 37 °C) read?
The value was “we clearly observed a CDP-ribitol pyrophosphorylase activity (Fig. 1b)”.
